# Experimental data: patent US20240116946A1 (Gilead Sciences, Inc., priority 2022, published 2024)
# Read-outs that look alike come from different tables or passages of the source.
# Assays:
# SARS-CoV-2-NLuc = test: microbe, parasite or virus in culture; type: cell-based, SARS Coronavirus 2
# [1] = molecular target: recombinant SARS-CoV-2 Main protease (Mpro) (Severe acute respiratory syndrome coronavirus 2 (2019-nCoV) (SARS-CoV-2), UniProt P0DTD1); test: Cov Mpro Biochemical IC50 Assay; conditions: fluorogenic peptide substrate 40 μM
# [2] = recombinant SARS-CoV-2 Mpro 7.5 nM, read-out: MPro IC50
# [3] = Severe acute respiratory syndrome coronavirus, 48 h, read-out: MPro EC50
# [4] = Severe acute respiratory syndrome coronavirus, 48 h; read-out: MPro EC50
# [5] = MPro IC50, recombinant SARS-CoV-2 Mpro 7.5 nM
Structure (SMILES),EC50 (SARS-CoV-2-NLuc; read-out: MPro EC50),"IC50 [1, 2]",EC50 (SARS-CoV-2-NLuc; [3]),EC50 (SARS-CoV-2-NLuc; [4]),"IC50 [1, 5]"
COc1cc(-c2cc(OC)c3c(=O)n(-c4cncc5ccccc45)c(=O)[nH]c3c2)c(C#N)cc1F [Example 680],20.8 nM,21.7 nM,,,
N#CCn1c(=O)n(-c2cncc3ccccc23)c(=O)c2sc(-c3c(Cl)cccc3-c3cncc(C#N)c3)cc21 [Example 681],,4.49 nM,11.1 nM,,
COc1cc(-c2cc3[nH]c(=O)n(-c4cncc5cccc(F)c45)c(=O)c3cc2OC)c(C#N)cc1F [Example 682],,20.2 nM,33 nM,,
COc1cc(-c2cc3[nH]c(=O)n(-c4cncc5ccn(C)c45)c(=O)c3cc2OC)c(C#N)cc1F [Example 683],,8.88 nM,43.7 nM,,
COc1cc(-c2cc3[nH]c(=O)n(-c4cncc5cccnc45)c(=O)c3cc2OC)c(C#N)cc1F [Example 684],,13.5 nM,119 nM,,
N#Cc1ccc(Cl)cc1-c1cc2[nH]c(=O)n(-c3cncc4ccccc34)c(=O)c2s1 [Example 685],,12 nM,69.2 nM,,
COc1cc(-c2cc3c(s2)c(=O)n(-c2cncc4[nH]c(=O)n(C)c24)c(=O)n3CCC#N)c(Cl)cc1F [Example 687],,4.92 nM,148 nM,,
COc1cc(-c2cc3c(s2)c(=O)n(-c2cncc4nnn(C)c24)c(=O)n3CC2(C#N)CC2)c(Cl)cc1F [Example 688],,9.78 nM,14.5 nM,,
COc1cc(-c2cc3c(s2)c(=O)n(-c2cncc4ccccc24)c(=O)n3Cc2ncn(C)n2)c(Cl)cc1F [Example 689],,32 nM,30 nM,,
COc1cc(-c2cc3c(s2)c(=O)n(-c2cncc4ccccc24)c(=O)n3CC2(C#N)CCC2)c(Cl)cc1F [Example 690],,47 nM,98.8 nM,,
COc1cc(-c2cc3c(s2)c(=O)n(-c2cncc4cnn(C5CC5)c24)c(=O)n3CC#N)c(Cl)cc1F [Example 691],,3.07 nM,2.91 nM,,
COc1cc(-c2cc3c(s2)c(=O)n(-c2cncc4nnn(C5CC5)c24)c(=O)n3CC2(C#N)CC2)c(Cl)cc1F [Example 692],,4.35 nM,2.44 nM,,
COc1cc(-c2cc3c(s2)c(=O)n(-c2cncc4cnn(C)c24)c(=O)n3CC#N)c(C#N)cc1F [Example 693],,2.56 nM,94.2 nM,,
COc1cc(-c2cc3c(s2)c(=O)n(-c2cncc4ccccc24)c(=O)n3[C@H]2C[C@@H](C#N)C2)c(Cl)cc1F [Example 694],,19.3 nM,61 nM,,
COc1cc(-c2cc3c(s2)c(=O)n(-c2cncc4ccccc24)c(=O)n3[C@H]2C[C@H](C#N)C2)c(Cl)cc1F [Example 695],,16.2 nM,45.9 nM,,
COc1cc(-c2cc3c(s2)c(=O)n(-c2cncc4ccn(C)c(=O)c24)c(=O)n3CC#N)c(Cl)cc1F [Example 696],,3.15 nM,29.2 nM,,
COc1cc(-c2cc3c(s2)c(=O)n(-c2cncc4cnn(C)c24)c(=O)n3CC(C)(C)C#N)c(Cl)cc1F [Example 697],,9.01 nM,9.62 nM,,
COc1cc(-c2cc3c(s2)c(=O)n(-c2cncc4ccccc24)c(=O)n3CC(C)(C)C#N)c(Cl)cc1F [Example 698],,7.1 nM,14.1 nM,,
COc1cc(-c2cc3[nH]c(=O)n(-c4cncc5c(CO)nn(C)c45)c(=O)c3s2)c(Cl)cc1F [Example 699],,10.6 nM,470 nM,,
Cn1ncc2cncc(-n3c(=O)[nH]c4cc(-c5cc(F)ccc5C#N)sc4c3=O)c21 [Example 700],,54.6 nM,,466 nM,

Structure (SMILES),EC50 (SARS-CoV-2-NLuc; read-out: MPro EC50),"IC50 [1, 2]",EC50 (SARS-CoV-2-NLuc; [3]),EC50 (SARS-CoV-2-NLuc; [4]),"IC50 [1, 5]"
COc1cc(-c2cc3c(s2)c(=O)n(-c2cncc4cccc(F)c24)c(=O)n3CC#N)c(Cl)cc1F [Example 703],,3.58 nM,3.74 nM,,
COc1cc(-c2nc3[nH]c(=O)n(-c4cncc5ccccc45)c(=O)c3s2)c(Cl)cc1F [Example 704],,,,248 nM,34.4 nM
COc1cc(-c2nc3c(s2)c(=O)n(-c2cncc4ccccc24)c(=O)n3CC#N)c(Cl)cc1F [Example 705],,4.74 nM,8.11 nM,,
COc1cc(-c2cc3[nH]c(=O)n(-c4cncc5c4c(C)cn5C)c(=O)c3s2)c(Cl)cc1F [Example 706],,5.93 nM,6.53 nM,,
COc1cc(-c2cc3c(s2)c(=O)n(-c2cncc4nc(C)n(C)c24)c(=O)n3CC2(C#N)CC2)c(Cl)cc1F [Example 707],,2.13 nM,8.9 nM,,
COc1cc(-c2cc3c(s2)c(=O)n(-c2cncc4cccnc24)c(=O)n3CC#N)c(Cl)cc1F [Example 708],,4.41 nM,8.71 nM,,
COc1cc(-c2cc3c(s2)c(=O)n(-c2cncc4cccnc24)c(=O)n3CC2(C#N)CC2)c(Cl)cc1F [Example 709],,6.21 nM,2.09 nM,,
N#CCn1c(=O)n(-c2cncc3cccnc23)c(=O)c2sc(-c3ccccc3Cl)cc21 [Example 710],,< 4.33 nM,22.6 nM,,
N#CC1(Cn2c(=O)n(-c3cncc4cccnc34)c(=O)c3sc(-c4ccccc4Cl)cc32)CC1 [Example 711],,4.41 nM,1.71 nM,,
COc1cc(-c2cc3[nH]c(=O)n(-c4cncc5ccc(=O)n(C)c45)c(=O)c3s2)c(Cl)cc1F [Example 712],,6.85 nM,12.4 nM,,
COc1cc(-c2cc3[nH]c(=O)n(-c4cnccc4C)c(=O)c3s2)c(Cl)cc1F [Example 713],,,,15 nM,9.18 nM
COc1cc(-c2cc3[nH]c(=O)n(-c4cnnc(C)c4)c(=O)c3s2)c(Cl)cc1F [Example 714],,> 1000 nM,> 1000 nM,,
COc1cc(-c2cc3[nH]c(=O)n(-c4cncc(Cl)c4)c(=O)c3s2)c(Cl)cc1F [Example 715],,4.63 nM,,9.94 nM,
COc1cc(-c2cc3[nH]c(=O)n(-c4cncc5ccccc45)c(=O)c3s2)c(C)cc1Cl [Example 716],,15.9 nM,18.7 nM,,
COc1cc(-c2cc3[nH]c(=O)n(-c4cncc5ccccc45)c(=O)c3s2)c(C)cc1C [Example 717],,23.8 nM,25.3 nM,,
COc1cnc(C)c(-c2cc3[nH]c(=O)n(-c4cncc5ccccc45)c(=O)c3s2)c1 [Example 718],,106 nM,371 nM,,
COc1cc(-c2cc3[nH]c(=O)n(-c4cncc5ccccc45)c(=O)c3s2)c(C)cn1 [Example 719],,364 nM,938 nM,,
Cc1cc(F)cc(Cl)c1-c1cc2[nH]c(=O)n(-c3cncc4ccccc34)c(=O)c2s1 [Example 720],,110 nM,100 nM,,
Cc1cc(Cl)cc(Cl)c1-c1cc2[nH]c(=O)n(-c3cncc4ccccc34)c(=O)c2s1 [Example 721],,705 nM,478 nM,,
COc1ccc(-c2cc3[nH]c(=O)n(-c4cncc5ccccc45)c(=O)c3s2)c(Cl)c1 [Example 722],,34 nM,68.8 nM,,

Structure (SMILES),EC50 (SARS-CoV-2-NLuc; read-out: MPro EC50),"IC50 [1, 2]",EC50 (SARS-CoV-2-NLuc; [3]),EC50 (SARS-CoV-2-NLuc; [4]),"IC50 [1, 5]"
COc1cc(Cl)c(-c2cc3[nH]c(=O)n(-c4cncc5ccccc45)c(=O)c3s2)cc1C [Example 723],,21.1 nM,17.2 nM,,
COc1cc(Cl)c(-c2cc3[nH]c(=O)n(-c4cncc5ccccc45)c(=O)c3s2)cc1Cl [Example 724],,9.42 nM,17.1 nM,,
COc1cc(Cl)c(-c2cc3[nH]c(=O)n(-c4cncc5ccccc45)c(=O)c3s2)cc1F [Example 725],,8.5 nM,19.4 nM,,
O=c1[nH]c2cc(-c3cc(Cl)c(F)cc3Cl)sc2c(=O)n1-c1cncc2ccccc12 [Example 726],,22.8 nM,39 nM,,
N#CCn1c(=O)n(-c2cncc3ccccc23)c(=O)c2sc(-c3ccc(F)cc3Cl)cc21 [Example 727],,3.09 nM,8.36 nM,,
N#CCn1c(=O)n(-c2cncc3ccccc23)c(=O)c2sc(-c3cc(F)ccc3Cl)cc21 [Example 728],,2.7 nM,4.34 nM,,
COc1cc(-c2cc3[nH]c(=O)n(-c4cncc5c4CCCC5)c(=O)c3s2)c(Cl)cc1F [Example 729],,6.1 nM,,7.78 nM,
COc1cc(-c2cc3[nH]c(=O)n(-c4cncc5cnn(CC(F)F)c45)c(=O)c3s2)c(Cl)cc1F [Example 730],,10.1 nM,28.9 nM,,
COc1cc(-c2cc3[nH]c(=O)n(-c4cncc5nn(C)cc45)c(=O)c3s2)c(Cl)cc1F [Example 731],,5.04 nM,65.6 nM,,
CCn1ncc2cncc(-n3c(=O)[nH]c4cc(-c5cc(OC)c(F)cc5Cl)sc4c3=O)c21 [Example 732],,15.1 nM,15.7 nM,,
COCCn1ncc2cncc(-n3c(=O)[nH]c4cc(-c5cc(OC)c(F)cc5Cl)sc4c3=O)c21 [Example 733],,15.2 nM,25.8 nM,,
CCn1cc2cncc(-n3c(=O)[nH]c4cc(-c5cc(OC)c(F)cc5Cl)sc4c3=O)c2n1 [Example 734],,5.17 nM,43.5 nM,,
COCCn1cc2cncc(-n3c(=O)[nH]c4cc(-c5cc(OC)c(F)cc5Cl)sc4c3=O)c2n1 [Example 735],,6.65 nM,71 nM,,
COc1cc(-c2cc3[nH]c(=O)n(-c4cncc5ncccc45)c(=O)c3s2)c(Cl)cc1F [Example 737],,17.9 nM,74.1 nM,,
COc1cc(-c2cc3[nH]c(=O)n(-c4c(C)ccnc4F)c(=O)c3s2)c(Cl)cc1F [Example 738],,13.4 nM,,26.2 nM,
COc1cc(-c2cc3[nH]c(=O)n(-c4cncc5ccncc45)c(=O)c3s2)c(Cl)cc1F [Example 739],,9.45 nM,,17.5 nM,
COc1cc(-c2cc3[nH]c(=O)n(-c4cncc5nn(CC(F)(F)F)c(C)c45)c(=O)c3s2)c(Cl)cc1F [Example 740],,47.9 nM,103 nM,,
COc1cc(-c2cc3[nH]c(=O)n(-c4cncc5c4c(C)nn5CC(F)(F)F)c(=O)c3s2)c(Cl)cc1F [Example 741],,> 1000 nM,> 1000 nM,,
COc1cc(-c2cc3[nH]c(=O)n(-c4cncc(Cl)c4Cl)c(=O)c3s2)c(Cl)cc1F [Example 742],,15.2 nM,26.2 nM,,
